# Literature values as cited in patent US4703106A, “Novel polypeptide and process for producing the same” (Mitsubishi Petrochemical Co., Ltd., priority 1984, dated 1987).
# Positions of bridges follow the written chain, without caps; N, C: chain ends. No end group written: not given here.
# Tested on: Ca^2+ concentration in blood
# Conditions: published as Japanese Provisional Patent Publication No. 123500/1985
substance,measurement,value
"chicken CT: calcitonin extracted and purified from the ultimobranchial glands of chickens, formula (I) (CASLSTCVLGKLSQELHKLQTYPRTDVGAGTP-NH2; disulfide 1-7; ends not checked; UniProt P07660 82-113, looked up)",biological activity relative to CT's of cyclostomata and fish,equal to or higher than CT's of cyclostomata and fish
